# PubChem BioAssay (NCI)
#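 Following 48 hours of exposure in 96-well plates, responses at five concentrations were used to interpolate endpoints linearly. The concentration for 50% growth inhibition is given as GI50. At the TGI there is no net growth.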
# Tests used:
# Assay in all cases: NCI tumour cell line growth inhibition, 48 h
# CAKI-1 renal = system: CAKI-1 renal
# HCT-15 colon = system: HCT-15 colon
# IGROV1 ovarian = system: IGROV1 ovarian
# OVCAR-3 ovarian = system: OVCAR-3 ovarian
# RXF 393 renal = system: RXF 393 renal
# SF-539 CNS = system: SF-539 CNS
# SNB-75 CNS = system: SNB-75 CNS
# CCRF-CEM leukemia = system: CCRF-CEM leukemia
# SNB-19 CNS = system: SNB-19 CNS
# NCI-H226 lung = system: NCI-H226 lung
SMILES,GI50 (CAKI-1 renal) [µM],TGI (CAKI-1 renal) [µM],GI50 (HCT-15 colon) [µM],TGI (HCT-15 colon) [µM],GI50 (IGROV1 ovarian) [µM],TGI (IGROV1 ovarian) [µM],GI50 (OVCAR-3 ovarian) [µM],TGI (OVCAR-3 ovarian) [µM],GI50 (RXF 393 renal) [µM],TGI (RXF 393 renal) [µM],GI50 (SF-539 CNS) [µM],TGI (SF-539 CNS) [µM],GI50 (SNB-75 CNS) [µM],TGI (SNB-75 CNS) [µM],GI50 (CCRF-CEM leukemia) [µM],TGI (CCRF-CEM leukemia) [µM],GI50 (SNB-19 CNS) [µM],TGI (SNB-19 CNS) [µM],TGI (NCI-H226 lung) [µM],GI50 (NCI-H226 lung) [µM]
CN1CCN(Cc2cc(NC(=O)c3cccc(C#Cc4cccc5[nH]nc(N)c45)c3)cc(C(F)(F)F)c2)CC1,1.68,3.06,1.81,3.37,2.05,4.07,1.92,3.56,1.46,2.83,1.17,2.43,1.5,2.92,–,–,–,–,–,–
COc1cnc2c(c1)C(=O)c1c-2n(CCCN2CCNCC2)c(=O)c2cc([N+](=O)[O-])ccc12,0.202,1.71,0.194,1.54,–,–,1.19,2.63,0.401,1.94,0.354,1.47,0.429,1.97,0.143,1.78,0.21,2.1,–,–
C/C(=N/Nc1nc(C)cc(=O)[nH]1)C(=O)O,–,> 100,–,> 100,–,> 100,–,> 100,–,> 100,–,–,–,> 100,–,> 100,–,> 100,> 100,–
CCN=C(C#N)NCC,–,> 100,–,> 100,–,> 100,–,> 100,–,–,–,> 100,–,> 100,–,> 100,–,> 100,> 100,–
Fc1ccc(Nc2nc3ccccc3c3occc23)cc1,1.89,5.24,9.58,21.4,2.62,35.1,1.48,12.1,12.6,31.5,19.3,33.7,–,–,–,–,7.96,24.1,–,–
COc1ccc(CCc2cc(OC)c(O)c(OC)c2)cc1,–,> 100,–,–,–,> 100,–,> 100,–,–,–,> 100,–,> 100,–,> 100,–,> 100,> 100,–
COc1ccc(/C=C2\c3cc(OC)c(OC)c(OC)c3CC[C@@H]2O)cc1F,0.391,> 100,0.19,> 100,0.812,> 100,0.262,> 100,–,–,0.272,0.917,–,–,0.815,> 100,0.855,> 100,–,–
Cc1nccc2c3ccc(OCc4cn(-c5ccc(Cl)cc5)nn4)cc3n(CC(C)C)c12,–,–,1.28,21.5,4.99,18.7,5.15,> 33.3,2.85,11.8,2.82,10.9,5.09,14.4,2.04,> 33.3,4.5,> 33.3,13.7,3.47
Cc1cc(Cl)ccc1NC(=O)C(=O)C(C(=O)c1ccccc1)C1OC(=O)c2ccccc21 (stereo not drawn),–,> 100,–,> 100,–,> 100,–,–,–,> 100,–,> 100,–,> 100,–,> 100,–,> 100,> 100,–
c1ccc2c(NCCCCCCNc3cccc4ccccc34)cccc2c1,–,> 100,–,> 100,–,> 100,–,> 100,–,–,–,> 100,–,> 100,–,> 100,–,> 100,> 100,–
COCCn1cc(-c2csc(-c3c[nH]c4ccc(Br)cc34)n2)c2cccnc21,5.21,> 100,3.14,> 100,4.06,> 100,3.9,> 100,3.3,11.2,7.34,> 100,4.72,29.4,–,–,12.2,> 100,–,–
Nc1c(F)cc(-c2nc3cc(F)ccc3[se]2)cc1Br,–,–,0.0476,> 100,0.0127,27.4,0.123,> 100,2.28,42.8,11.4,32.4,3.23,> 63,> 100,> 100,27.8,> 100,2.06,0.0484
CCCCCC[C@H](C)NC(=O)c1ccc(Nc2nc3ccccc3c3occc23)cc1,3.97,50.5,8.42,33,2.46,5.77,3.11,19.7,3.88,13.7,2.48,5.31,3.99,7.69,3.68,> 100,5.15,> 100,–,–
CC(=O)O[C@H]1CC2C=CC3C(CCC31)O2 (stereo partly drawn),–,> 100,–,> 100,–,> 100,–,> 100,–,> 100,–,–,–,> 100,–,> 100,–,> 100,–,–
CCOC1CC2OC(=O)C1C=C2C(=O)OC (stereo not drawn),–,40,–,> 100,–,> 100,–,75.1,–,–,–,68.4,–,–,–,56.6,–,> 100,> 100,–
[O-]c1c2c(nn1-c1ccc(Cl)cc1)c1ccccc1c[n+]2Cc1ccccc1,–,> 100,–,–,–,> 100,–,> 100,–,79.5,–,> 100,–,69.2,–,> 100,–,> 100,> 100,–
CCCCCCCC(=O)[O][Hg][CH2]C1COC([CH2][Hg][O]C(=O)CCCCCCC)CO1 (stereo not drawn),–,–,9.54,26.2,18,38.3,4.22,14.8,18.5,32.5,17.5,37.4,15.3,34.6,1.91,> 100,16.1,29.5,–,–
